Series [1] has as its target T1, Regulator of G-protein signaling 17 (Homo sapiens) (UniProt Q9UGC6).
T1 sequence (whole entry): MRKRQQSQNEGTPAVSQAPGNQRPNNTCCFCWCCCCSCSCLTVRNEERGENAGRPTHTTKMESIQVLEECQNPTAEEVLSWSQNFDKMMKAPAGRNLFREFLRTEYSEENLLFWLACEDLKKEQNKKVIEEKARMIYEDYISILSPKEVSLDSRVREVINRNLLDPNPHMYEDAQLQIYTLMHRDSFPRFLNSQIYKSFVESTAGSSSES
In words: Inhibition of RGS17 (unknown origin) assessed as reduction in RGS17 interaction with 6x-his-tagged biotinylated Galpha-o interaction by Alpha-screen assay.

Series [2] concerns the target T1, Regulator of G-protein signaling 17 (Homo sapiens). Put plainly: Binding affinity to RGS17 (unknown origin) assessed as shifting of protein melting temperature by Sypro-orange dye based differential scanning fluorimetry. In general terms: In DSF a fluorescence change marks the thermal transition of the protein.
The target is the same in series [3]. In words: Inhibition of RGS17 (unknown origin) assessed as reduction in RGS17 interaction with 6x-his-tagged biotinylated Galpha-o interaction at 100 uM followed by 3 times drug wash out with ASB buffer by Alpha-screen assay. (In general: Bead proximity is the source of the signal in Alpha formats.)
Series [4] shares this target. Put plainly: Inhibition of RGS17 (unknown origin) assessed as reduction in RGS17 interaction with 6x-his-tagged biotinylated Galpha-o interaction at 100 uM by Alpha-screen assay.
Series [5] has the same target. Put plainly: Covalent binding affinity to N-terminal deficient RGS17 (unknown origin) assessed as covalent protein-compound adduct formation at 50 uM incubated for 1 hr by MALDI-TOF mass spectrometry.
Series [6] shares this target. In words: Inhibition of cell membrane translocation of N-terminal GFP tagged full length RGS17 (unknown origin) expressed in HEK293T cells co-expressing Galpha-o at 100 uM incubated for 10 mins by confocal microscopy. The series is classed as cell-based.
Series [7] shares this target. Put plainly: Inhibition of cell membrane translocation of N-terminal GFP tagged and N-terminal deficient RGS17 (unknown origin) expressed in HEK293T cells co-expressing Galpha-o assessed as induction of delocalization of RGS17deltaN to cytoplasm at 100 uM incubated for 10 mins by confocal microscopy. Format: cell-based.
The target is the same in series [8]. In words: Inhibition of cell membrane translocation of N-terminal GFP tagged and N-terminal deficient RGS17 (unknown origin) expressed in HEK293T cells co-expressing Galpha-o assessed as induction of delocalization of RGS17deltaN to cytoplasm at 10 uM incubated for 10 mins by confocal microscopy. Format: cell-based.
Series [9] has as its target Guanine nucleotide-binding protein G(o) subunit alpha (Homo sapiens) (UniProt P09471). In words: Binding affinity to Galpha-o (unknown origin) assessed as shifting of protein melting temperature by Sypro-orange dye based differential scanning fluorimetry.
The next series has as its system HEK-293T. In words: Cytotoxicity in HEK293T cells co-expressing Galpha-o at 100 uM incubated for 10 mins. The series is classed as cell-based. The note with it: human.

Each structure is given as a SMILES string. Activity calls are given as the source filed them. The rule behind the calls is not given here.

Chain of Guanine nucleotide-binding protein G(o) subunit alpha (Homo sapiens) (P09471 2-354 limits assumed): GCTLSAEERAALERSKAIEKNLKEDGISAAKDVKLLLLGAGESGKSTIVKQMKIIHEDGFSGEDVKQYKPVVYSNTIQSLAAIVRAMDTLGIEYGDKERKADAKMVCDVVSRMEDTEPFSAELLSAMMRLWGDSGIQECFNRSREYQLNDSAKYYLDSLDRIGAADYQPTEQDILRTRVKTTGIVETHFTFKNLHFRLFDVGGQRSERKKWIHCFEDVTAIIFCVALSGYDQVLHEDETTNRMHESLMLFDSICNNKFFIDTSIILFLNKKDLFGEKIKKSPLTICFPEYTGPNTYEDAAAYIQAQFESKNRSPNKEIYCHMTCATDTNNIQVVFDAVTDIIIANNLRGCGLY

For `C[n+]1cc2c3c(ccc2c2ccc4cc5c(cc4c21)OCO5)OCO3`, the inhibition entry in series [1] was “Dose-dependent effect”. Moreover, the thermal shift (ΔTm) (as a rule, the change in melting temperature against a reference sample) in [2] stood at 2.1 °C. The inhibition result in series [3], in [7] and in [8] was “Active” each time. Further, the inhibition result in series [4] and in series [6] was “inactive” throughout. In addition, in series [5], the outcome was inactive.

Turning to `CC(C)=CCC[C@]1(C)C=Cc2c(O)c3c(c(CC=C(C)C)c2O1)O[C@]12C(=C[C@@H]4C[C@H]1C(C)(C)O[C@@]2(C/C=C(/C)C(=O)O)C4=O)C3=O` [GAMBOGIC ACID], the inhibition result in [1] is “Dose-dependent effect”. Also, the result in [2] and in series [9] was Active. In addition, the inhibition entry in [3] was “Active”. Also, the inhibition result in series [4] and in [7] was “inactive” in each case. Further, the result in series [5] was inactive. The Activity result with HEK-293T is “Toxic”.

With `CC1=C(O)C(=O)C=C2C1=CC=C1[C@@]2(C)CC[C@@]2(C)[C@@H]3C[C@](C)(C(=O)O)CC[C@]3(C)CC[C@]12C`, in series [1], the inhibition entry was “Dose-dependent effect”. In series [2], the ΔTm is 1.4 °C. In addition, the inhibition entry in series [3], in series [7] and in series [8] was “Active” each time. Further, in series [4], the inhibition entry is “inactive”. For the same compound, in series [5], the result was inactive.

On to `O=c1c(-c2cc(O)c(O)c(O)c2)coc2cc(O)c(O)c(O)c12`, for which, in series [1], the inhibition result is “Dose-dependent effect”. Also, the ΔTm in series [2] is 1 °C. For the same compound, the inhibition result in series [3], in series [7] and in series [8] was “Active” throughout. Besides, the inhibition result in [4] was “inactive”. Also, the outcome in series [5] was inactive.

Consider `Cc1ccc(-n2sc(=O)n(Cc3ccc(F)cc3)c2=O)cc1`, for which the inhibition entry in series [7] is “inactive”.

Values taken from ChEMBL document CHEMBL4417625, “Therapeutic compounds and methods” (2016).
